Data set [1] relates to HepG2. Kind of data set: Hepatoprotective activity against GA-induced human HepG2 cells assessed as cell viability at 10 uM pre-incubated for 2 hrs followed by GA addition and measured after 22 hrs by MTT assay (Rvb=37% ). Format: functional. The note with it: time 24 hrs, read-out: Activity. (Tetrazolium assays rely on reduction of a dye to a coloured formazan, in cell work by metabolically active cells.)

The subject of data set [2] is HepG2. The experiment in a line: Hepatoprotective activity against GA-induced human HepG2 cells assessed as reduction in Bax protein expression at 5 to 10 uM. Format: functional, cell-based. The note with it: dose 5-10 µM.
The test system of data set [3] is HepG2. The experiment in a line: Cytotoxicity against human HepG2 cells assessed as reduction cell viability at 10 uM after 24 hrs by MTT assay. Format: toxicity, cell-based. The conditions noted are these: hepg2, 24 h.

Active and inactive are the calls of the source. The rule behind the calls is not given here.

Take `COc1ccc(C[C@H]2COc3c4c(cc(O)c3C2=O)OC(C)(C)C=C4)cc1`: in data set [1], the viability at 10 µM worked out at 51%. For the same compound, the result in data set [2] was Active. Also, the Activity entry in data set [3] is “Non-Toxic”.

For `COc1ccc(C[C@H]2COc3cc4c(c(O)c3C2=O)C=CC(C)(C)O4)cc1`, the viability at 10 µM in data set [1] is 47%. The outcome in data set [2] was Active. Besides, in data set [3], the Activity entry is listed as “Non-Toxic”.

These data come from ChEMBL document CHEMBL5365403, “Synthesis of proposed structure of ledebourin A” (Bioorg Med Chem Lett, 2023).
